Results taken from patent US20240092772A1, “CRYSTALLINE FORM OF A PIPERAZINYL-THIAZOLE DERIVATIVE” (Idorsia Pharmaceuticals Ltd, priority 2021, published 2024).

What was measured:
[1] = Gravimetric vapor sorption (GVS), hygroscopicity determination; format: physicochemical; conditions: 25° C.; variation in mass between 40% and 80% RH in first sorption scan; classification in analogy to Ph. Eur. 10.0, section 5.11
Experimental: Gravimetric Vapor Sorption (GVS) Moisture sorption isotherm was collected on a dynamic vapor sorption analyzer IGASORP HAS-036-080 from Hiden Isochema operated with Isochema HIsorp 2019 software version 4.02.0070. Typically, about 30 mg of a sample is placed in the sample holder and is submitted to a stepwise equilibration at defined relative humidity (RH) setpoints at 25° C. The sample mass is recorded at these setpoints and are used to build the moisture sorption isotherm. The relative humidity setpoints used were 40% to 0% RH followed by 0% to 95% RH in 5% RH intervals. Data shown consist of the moisture sorption isotherm in the range 5% to 90% of the sample submitted to the increasing relative humidity. The variation in mass between 40% relative humidity and 80% relative humidity in the first sorption scan is evaluated for the hygroscopicity determination. The classification is done in analogy to the European Pharmacopeia (Ph. Eur.) 10.0, section 5.11.

[2] = Solid-state stability of crystalline form 3 on isolation/drying (XRPD); format: physicochemical; conditions: isolation by filter centrifugation or drying under reduced pressure; transforms to crystalline form 1
Experimental: In another experiment 0.04 mL of MeCN is added to 20 mg of COMPOUND (e.g. as obtained from Example 1) in a standard glass HPLC vial, and the suspension in the closed vial is submitted to a temperature variation cycle while being stirred with a magnetic stirring bar. Temperature cycling (repetition of heating 20° C. to 40° C. in 1 hour and cooling 40° C. to 20° C. in 4 hours) and stirring for 25 hours is done in a Polar Bear device (Cambridge reactor design, UK) The obtained solid, when analyzed without drying, is COMPOUND in crystalline form 3.
Form 3 is observed by XRPD when measured still in presence of sufficient MeCN. Isolation by filter centrifugation or isolation and drying under reduced pressure leads to the transformation of crystalline form 3 to crystalline form 1, pointing to the metastable nature of form 3 in absence of sufficient MeCN.

SMILES	GVS (hygroscopicity) [1]	Stability of the crystalline form in absence of sufficient MeCN [2]
Cc1ncn(CC(=O)N2CCN(c3sc(C(F)(F)F)nc3-c3cnc(C(F)(F)F)nc3)C[C@H]2CCO)n1 [COMPOUND in crystalline form 1, 1-{(R)-2-(2-Hydroxy-ethyl)-4-[2-trifluoromethyl-4-(2-trifluoromethyl-pyrimidin-5-yl)-thiazol-5-yl]-piperazin-1-yl}-2-(3-methyl-[1,2,4]triazol-1-yl)-ethanone]	Not hygroscopic	–
Cc1ncn(CC(=O)N2CCN(c3sc(C(F)(F)F)nc3-c3cnc(C(F)(F)F)nc3)C[C@H]2CCO)n1 [crystalline form 3, 1-{(R)-2-(2-Hydroxy-ethyl)-4-[2-trifluoromethyl-4-(2-trifluoromethyl-pyrimidin-5-yl)-thiazol-5-yl]-piperazin-1-yl}-2-(3-methyl-[1,2,4]triazol-1-yl)-ethanone]	–	metastable
